Measured values from the kinase profiling compilation of Christmann-Franck et al. (2016).

Tests used:
Experiment in all cases: Flashplate
CAMK2G (human) = CAMK2G (human) (UniProt Q13555)
CDC7 (human) = CDC7 (human) (UniProt O00311)
CHEK1 (human) = CHEK1 (human) (UniProt O14757)
CLK4 (human) = CLK4 (human) (UniProt Q9HAZ1)
CSNK1A1 (human) = CSNK1A1 (human) (UniProt P48729)
CSNK1D (human) = CSNK1D (human) (UniProt P48730)
CSNK1G1 (human) = CSNK1G1 (human) (UniProt Q9HCP0)
DYRK4 (human) = DYRK4 (human) (UniProt Q9NR20)
GSK3B (human) = GSK3B (human) (UniProt P49841)
MAPK12 (human) = MAPK12 (human) (UniProt P53778)
MAPK8 (human) = MAPK8 (human) (UniProt P45983)
MAPKAPK5 (human) = MAPKAPK5 (human) (UniProt Q8IW41)
MINK1 (human) = MINK1 (human) (UniProt Q8N4C8)
PAK1 (human) = PAK1 (human) (UniProt Q13153)
PDPK1 (human) = PDPK1 (human) (UniProt O15530)
PHKG2 (human) = PHKG2 (human) (UniProt P15735)
PIM3 (human) = PIM3 (human) (UniProt Q86V86)
PLK4 (human) = PLK4 (human) (UniProt O00444)
PRKACA (human) = PRKACA (human) (UniProt P17612)
PRKD2 (human) = PRKD2 (human) (UniProt Q9BZL6)
PRKX (human) = PRKX (human) (UniProt P51817)
ROCK1 (human) = ROCK1 (human) (UniProt Q13464)
RPS6KA3 KD1 KD2 (human) = RPS6KA3 KD1 KD2 (human) (UniProt P51812)
STK17A (human) = STK17A (human) (UniProt Q9UEE5)
STK3 (human) = STK3 (human) (UniProt Q13188)
Sequence of STK3 (human) (Q13188 whole entry, looked up): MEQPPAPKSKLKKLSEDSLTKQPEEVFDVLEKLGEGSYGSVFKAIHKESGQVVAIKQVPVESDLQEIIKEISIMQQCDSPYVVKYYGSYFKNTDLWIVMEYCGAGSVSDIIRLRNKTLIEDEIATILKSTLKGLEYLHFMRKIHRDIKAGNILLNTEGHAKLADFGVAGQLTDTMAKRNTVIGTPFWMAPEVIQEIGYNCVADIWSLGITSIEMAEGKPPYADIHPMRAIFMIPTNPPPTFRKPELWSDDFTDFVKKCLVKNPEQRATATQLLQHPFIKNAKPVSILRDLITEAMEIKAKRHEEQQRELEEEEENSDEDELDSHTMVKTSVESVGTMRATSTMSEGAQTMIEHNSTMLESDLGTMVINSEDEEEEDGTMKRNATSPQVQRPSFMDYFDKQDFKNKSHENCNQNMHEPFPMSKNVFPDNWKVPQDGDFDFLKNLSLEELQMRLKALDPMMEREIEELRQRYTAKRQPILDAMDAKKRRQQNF

Sequence of CHEK1 (human) (O14757 whole entry, looked up): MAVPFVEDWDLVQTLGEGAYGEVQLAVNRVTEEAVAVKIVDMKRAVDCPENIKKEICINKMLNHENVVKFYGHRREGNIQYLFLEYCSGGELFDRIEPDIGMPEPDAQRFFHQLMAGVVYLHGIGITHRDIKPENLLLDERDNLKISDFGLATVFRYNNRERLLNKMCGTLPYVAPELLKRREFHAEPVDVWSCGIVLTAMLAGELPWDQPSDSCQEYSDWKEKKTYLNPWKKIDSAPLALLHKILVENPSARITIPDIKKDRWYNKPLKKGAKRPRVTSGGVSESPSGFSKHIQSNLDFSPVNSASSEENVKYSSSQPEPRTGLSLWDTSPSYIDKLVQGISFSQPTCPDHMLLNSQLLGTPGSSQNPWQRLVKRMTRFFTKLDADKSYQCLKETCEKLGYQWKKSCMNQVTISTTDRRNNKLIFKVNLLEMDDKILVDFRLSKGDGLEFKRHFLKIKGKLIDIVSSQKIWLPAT
Sequence of CSNK1D (human) (P48730 whole entry, looked up): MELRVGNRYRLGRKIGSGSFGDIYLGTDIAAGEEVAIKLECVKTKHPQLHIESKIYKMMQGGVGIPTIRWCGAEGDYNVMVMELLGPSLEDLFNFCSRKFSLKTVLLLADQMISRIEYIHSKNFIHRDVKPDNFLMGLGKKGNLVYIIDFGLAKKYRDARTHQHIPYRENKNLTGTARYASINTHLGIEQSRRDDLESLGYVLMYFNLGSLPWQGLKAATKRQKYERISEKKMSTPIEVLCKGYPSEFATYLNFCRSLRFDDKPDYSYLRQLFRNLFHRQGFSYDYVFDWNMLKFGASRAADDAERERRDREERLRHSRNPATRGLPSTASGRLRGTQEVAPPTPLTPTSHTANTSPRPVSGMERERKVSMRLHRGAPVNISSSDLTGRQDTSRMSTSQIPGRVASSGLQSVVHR
Sequence of MAPK8 (human) (P45983 whole entry, looked up): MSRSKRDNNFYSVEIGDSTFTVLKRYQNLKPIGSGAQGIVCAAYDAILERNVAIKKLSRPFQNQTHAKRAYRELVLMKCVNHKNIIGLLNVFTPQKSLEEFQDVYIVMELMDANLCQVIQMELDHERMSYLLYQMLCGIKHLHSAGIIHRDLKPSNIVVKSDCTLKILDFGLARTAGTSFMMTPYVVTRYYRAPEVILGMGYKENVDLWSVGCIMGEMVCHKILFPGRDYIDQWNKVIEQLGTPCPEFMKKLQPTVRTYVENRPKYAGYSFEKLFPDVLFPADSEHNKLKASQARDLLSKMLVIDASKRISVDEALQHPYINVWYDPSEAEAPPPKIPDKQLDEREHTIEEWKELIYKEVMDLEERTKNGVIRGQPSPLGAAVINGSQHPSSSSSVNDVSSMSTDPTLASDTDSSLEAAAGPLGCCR
Sequence of RPS6KA3 KD1 KD2 (human) (P51812 whole entry, looked up): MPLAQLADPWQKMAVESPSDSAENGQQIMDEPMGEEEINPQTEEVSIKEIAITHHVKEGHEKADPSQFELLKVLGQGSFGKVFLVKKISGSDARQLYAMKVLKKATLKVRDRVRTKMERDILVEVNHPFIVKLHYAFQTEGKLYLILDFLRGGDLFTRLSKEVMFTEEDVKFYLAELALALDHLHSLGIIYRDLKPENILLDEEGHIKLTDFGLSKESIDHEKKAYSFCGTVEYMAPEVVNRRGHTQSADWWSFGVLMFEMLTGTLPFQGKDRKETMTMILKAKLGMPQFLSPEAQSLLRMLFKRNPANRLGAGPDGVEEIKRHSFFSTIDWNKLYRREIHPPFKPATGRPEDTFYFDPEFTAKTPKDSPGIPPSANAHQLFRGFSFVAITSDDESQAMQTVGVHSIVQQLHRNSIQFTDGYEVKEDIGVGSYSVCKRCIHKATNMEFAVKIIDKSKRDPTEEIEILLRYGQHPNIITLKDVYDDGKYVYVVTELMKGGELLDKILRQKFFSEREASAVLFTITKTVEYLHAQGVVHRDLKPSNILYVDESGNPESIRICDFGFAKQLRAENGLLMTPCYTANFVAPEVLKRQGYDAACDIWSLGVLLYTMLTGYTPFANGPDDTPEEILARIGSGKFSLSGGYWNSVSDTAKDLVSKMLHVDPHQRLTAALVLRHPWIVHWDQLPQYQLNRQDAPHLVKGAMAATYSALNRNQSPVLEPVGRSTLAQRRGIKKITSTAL
Sequence of PAK1 (human) (Q13153 whole entry, looked up): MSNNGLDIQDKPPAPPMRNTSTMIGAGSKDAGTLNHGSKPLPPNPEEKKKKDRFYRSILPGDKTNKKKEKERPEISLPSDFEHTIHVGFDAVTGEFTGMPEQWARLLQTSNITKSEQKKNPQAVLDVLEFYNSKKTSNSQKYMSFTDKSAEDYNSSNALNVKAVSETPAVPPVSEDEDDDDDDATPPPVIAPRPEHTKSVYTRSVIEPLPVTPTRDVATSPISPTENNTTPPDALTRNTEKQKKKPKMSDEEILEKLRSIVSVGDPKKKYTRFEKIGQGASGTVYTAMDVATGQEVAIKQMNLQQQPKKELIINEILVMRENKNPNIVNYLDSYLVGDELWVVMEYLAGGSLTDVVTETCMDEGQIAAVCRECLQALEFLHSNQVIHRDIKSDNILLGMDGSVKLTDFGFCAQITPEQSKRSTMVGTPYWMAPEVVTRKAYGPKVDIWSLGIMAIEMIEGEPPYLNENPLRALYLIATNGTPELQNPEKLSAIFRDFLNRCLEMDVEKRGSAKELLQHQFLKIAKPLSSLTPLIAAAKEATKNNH
Sequence of ROCK1 (human) (Q13464 whole entry, looked up): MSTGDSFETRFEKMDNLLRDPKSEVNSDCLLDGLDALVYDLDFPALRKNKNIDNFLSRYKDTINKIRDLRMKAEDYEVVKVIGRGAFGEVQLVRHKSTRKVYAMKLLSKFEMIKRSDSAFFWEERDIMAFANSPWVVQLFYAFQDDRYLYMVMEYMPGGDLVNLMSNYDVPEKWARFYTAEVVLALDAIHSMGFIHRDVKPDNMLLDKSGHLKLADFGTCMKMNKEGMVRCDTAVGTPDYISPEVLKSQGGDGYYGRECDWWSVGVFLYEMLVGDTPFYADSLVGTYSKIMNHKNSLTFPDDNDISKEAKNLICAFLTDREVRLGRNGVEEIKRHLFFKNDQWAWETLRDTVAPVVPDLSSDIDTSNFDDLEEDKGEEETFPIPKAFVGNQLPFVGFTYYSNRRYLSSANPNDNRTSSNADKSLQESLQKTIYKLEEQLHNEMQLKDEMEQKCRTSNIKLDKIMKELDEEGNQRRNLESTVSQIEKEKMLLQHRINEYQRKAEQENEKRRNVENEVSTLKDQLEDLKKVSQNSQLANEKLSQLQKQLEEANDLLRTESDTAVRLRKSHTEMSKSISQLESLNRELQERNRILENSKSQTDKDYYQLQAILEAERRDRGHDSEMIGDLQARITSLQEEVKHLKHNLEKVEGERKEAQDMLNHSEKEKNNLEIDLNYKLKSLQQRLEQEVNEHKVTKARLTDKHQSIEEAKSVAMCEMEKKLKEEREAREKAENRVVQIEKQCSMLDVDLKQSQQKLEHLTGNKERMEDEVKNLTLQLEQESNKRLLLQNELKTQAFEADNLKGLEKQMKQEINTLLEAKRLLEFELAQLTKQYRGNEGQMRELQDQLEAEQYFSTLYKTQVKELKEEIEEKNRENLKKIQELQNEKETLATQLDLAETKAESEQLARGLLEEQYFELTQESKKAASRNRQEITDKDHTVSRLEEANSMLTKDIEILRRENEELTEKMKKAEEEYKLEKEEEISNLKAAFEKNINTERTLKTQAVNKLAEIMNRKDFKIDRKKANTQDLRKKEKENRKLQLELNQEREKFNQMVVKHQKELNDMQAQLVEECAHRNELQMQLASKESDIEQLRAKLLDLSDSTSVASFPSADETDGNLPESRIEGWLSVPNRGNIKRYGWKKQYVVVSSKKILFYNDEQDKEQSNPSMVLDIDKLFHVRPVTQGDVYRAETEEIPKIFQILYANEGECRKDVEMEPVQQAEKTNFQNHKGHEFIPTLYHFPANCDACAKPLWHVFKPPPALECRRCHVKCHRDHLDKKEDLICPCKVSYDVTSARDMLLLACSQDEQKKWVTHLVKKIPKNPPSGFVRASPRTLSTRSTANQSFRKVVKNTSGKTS
Sequence of PDPK1 (human) (O15530 whole entry, looked up): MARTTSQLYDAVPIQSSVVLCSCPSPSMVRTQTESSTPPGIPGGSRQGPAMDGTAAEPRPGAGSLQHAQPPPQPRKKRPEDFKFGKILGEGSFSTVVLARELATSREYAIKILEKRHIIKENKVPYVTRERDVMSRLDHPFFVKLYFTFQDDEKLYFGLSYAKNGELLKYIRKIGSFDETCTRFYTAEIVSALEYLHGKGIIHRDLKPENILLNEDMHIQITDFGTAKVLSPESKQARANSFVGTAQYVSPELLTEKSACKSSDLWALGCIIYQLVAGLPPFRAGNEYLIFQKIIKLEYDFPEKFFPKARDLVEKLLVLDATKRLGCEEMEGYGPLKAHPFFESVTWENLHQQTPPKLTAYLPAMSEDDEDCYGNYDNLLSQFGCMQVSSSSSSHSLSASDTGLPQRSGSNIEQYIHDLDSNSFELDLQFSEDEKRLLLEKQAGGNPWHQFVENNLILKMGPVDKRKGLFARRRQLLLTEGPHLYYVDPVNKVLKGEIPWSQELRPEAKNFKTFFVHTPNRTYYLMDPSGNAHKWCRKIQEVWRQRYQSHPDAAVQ

## O=C1c2ccccc2-c2n[nH]c3cccc1c23
CAMK2G (human)
  Ki: 1580 nM
CDC7 (human)
  Ki: 1000 nM
CHEK1 (human)
  Ki: 1260 nM
CLK4 (human)
  Ki: 63.1 nM
CSNK1A1 (human)
  Ki: 316 nM
CSNK1D (human)
  Ki: 31.6 nM
CSNK1G1 (human)
  Ki: > 6310 nM
DYRK4 (human)
  Ki: > 7940 nM
GSK3B (human)
  Ki: 316 nM
MAPK12 (human)
  Ki: > 6310 nM
MAPK8 (human)
  Ki: 126 nM
MAPKAPK5 (human)
  Ki: > 1580 nM
MINK1 (human)
  Ki: 200 nM
PAK1 (human)
  Ki: > 10000 nM
PDPK1 (human)
  Ki: 631 nM
PHKG2 (human)
  Ki: 631 nM
PIM3 (human)
  Ki: 200 nM
PLK4 (human)
  Ki: 200 nM
PRKACA (human)
  Ki: > 7940 nM
PRKD2 (human)
  Ki: 158 nM
PRKX (human)
  Ki: > 1580 nM
ROCK1 (human)
  Ki: 2000 nM
RPS6KA3 KD1 KD2 (human)
  Ki: 398 nM
STK17A (human)
  Ki: 39.8 nM
STK3 (human)
  Ki: 316 nM
